Here are results for 1 compound from PMC12520456, “Regulating Enzyme Activity via Microaggregates Mediated by Phase Separation” (Advanced Science, 2025).

One data set concerns carboxypeptidase A. Description: Fluorescence anisotropy specificity test. The format is binding. The following applies: fluorescently labeled DPMD; Figure S3G. The protocol:
(§1) To validate the design, DPMD was synthesized using solid‐phase synthesis employing HOBt/HBTU and Fmoc chemistry, following a sequence schematic diagram depicted in Figure 1A. Subsequently, a single reverse column purification by High‐performance liquid chromatography (HPLC) yielded DPMD with purity exceeding 95% at a yield surpassing 60% (Figure S1B, Supporting Information). Circular dichroism (CD) spectra were recorded for a 40 µM DPMD sample in an aqueous solution containing 20% TFE at room temperature. The use of 20% TFE was necessary to obtain a clear spectrum, as it enhances peptide solubility and stabilizes secondary structure.^[ [9] ^] […] To further confirm that DPMD's enzymatic targeting is specific and not a broad‐spectrum protein aggregation effect, we tested DPMD against other pancreatic enzymes and abundant plasma proteins. Fluorescently labeled DPMD was mixed with elastase, pancreatic lipase, α‐amylase, carboxypeptidase A, bovine serum albumin (BSA), and IgG, respectively, and fluorescence anisotropy was measured to detect binding. […] For example, anisotropy values for DPMD + elastase (or lipase, amylase, etc.) remained near the baseline (DPMD‐alone) level, whereas DPMD + trypsin produced a pronounced anisotropy elevation (reflecting peptide‐enzyme complex formation and microaggregate assembly).
(§2) Figure S3. […]
(§3) (D-H) The fluorescent anisotropy
(§4) evaluation of binding affinity between DPMD peptide with elastase (D), lipase (E), amylase(F), carboxypeptidase
(§5) (G), albumin (H) and immunoglobulins (I). […]

In a further data set the test system is α-amylase. Description: Fluorescence anisotropy specificity test. The format is binding. The note with it: fluorescently labeled DPMD; Figure S3F. The protocol:
as §1, §2, §3, §4, §5
For orientation: Polarisation of emitted light reports the rotation of a fluorescent probe.

The subject of data set [1] is postoperative pancreatic fistula (POPF). Description: Rat pancreatic splenic duct transection (non-lethal) POPF model. The format is in vivo. The protocol: To investigate the biofunction of DPMD in preventing POPF, a slowly occurring POPF model was established in rats by transecting the peripancreatic splenic duct to induce a continuous but low leakage of pancreatic juice (Figure 3A). Following surgical modeling, DPMD, its L‐enantiomer LPMD, or normal saline (Ctrl) were topically applied on the incision site. After post operation, chymotrypsin leakage was assessed using a specific fluorescent dye. […] By monitoring ascitic and serum amylase and lipase levels over a span of 7 days following surgical modeling (Figure 3C), we were able to make inferences about the pathological score (Figure 3D) and the occurrence of POPF (Figure 3E). The noteworthy observation is that all the mock‐treated rats experienced POPF on day 3 following surgical modeling, and this phenomenon persisted until day 5 (Figure 3E). In contrast, LPMD reduced both the occurrence and severity of POPF, resulting in 33% of rats being healthy and only 67% experiencing minor POPF on day 3; furthermore, all rats fully recovered by day 5 (Figure 3E). […] Furthermore, both DPMD and LPMD treatments decreased inflammation markers including TNF‐α, IL‐6, IL‐8, IL‐33, sST2, CRP, HMGB1, MPO, PAF, PCT, PGE2, and SAA in rats’ serum (Figure 3G). […]
was performed using an Annexin V-Alexa Fluor 647/PI kit (Solarbio) according to the manufacturer’ s protocol. Briefly, adherent cells were detached with 0.25% EDTA-free trypsin, combined with floating cells from the supernatant. The pellet was washed twice with cold PBS and resuspended in 100 μL of 1× binding buffer. After adding Annexin V-647 and PI, cells were incubated for 15 min in the dark at room temperature. Samples were analyzed within 1h on a Sony MA900 flow cytometer.
(§6) 3.12 Animal fluorescence imaging
(§7) Rats were intraperitoneally injected with 1 mL of rhodamine-labeled 0.5% (w/v) DPMD. […] The fluorescence emission intensity of the organs was measured using IVIS Spectrum system (PerkinElmer). […]

Data set [2] can be described thus: Animal fluorescence imaging, tissue distribution and urine. In kind it is in vivo, rat. The protocol:
To assess the fate of DPMD in vivo, rats were administered DPMD intraperitoneally and monitored using in vivo fluorescence imaging.
Figure S14. (A) The cell viability test of NIH-3T3 or HUVEC cells co-cultured with different concentrations DPMD.
(B) The apoptosis evaluation of NIH-3T3 or HUVEC co-cultured with DPMD, DPMD & Trypsin, DPMD & Chymotrypsin by flow cytometry. (C) Tissue distribution and quantification of DPMD in […] organs measured by IVIS (n=3/point). The fluorescence signal from the organs after DPMD intraperitoneal injection (1 ml, 0.5%) at 1h, 2-day, 3-day, 4-day, 5-day, 6-day, 7-day. (D) The evaluation of distribution DMPD in urine.
(1 picture or pasted object on this page, not shown here) […]
was performed using an Annexin V-Alexa Fluor 647/PI kit (Solarbio) according to the manufacturer’ s protocol. Briefly, adherent cells were detached with 0.25% EDTA-free trypsin, combined with floating cells from the supernatant. The pellet was washed twice with cold PBS and resuspended in 100 μL of 1× binding buffer. […] Samples were analyzed within 1h on a Sony MA900 flow cytometer.
as §6, §7

Non-standard residues stand in square brackets, D forms with d. Residues, ends and D or L forms follow the SMILES beside them.

Turning to `CC[C@@H](C)[C@@H](NC(=O)[C@@H](CCC(N)=O)NC(=O)[C@H](NC(=O)[C@@H](Cc1ccc(O)cc1)NC(=O)CNC(=O)[C@@H](CC(C)C)NC(=O)[C@H](NC(=O)[C@@H](CO)NC(=O)CNC(=O)[C@@H](C)NC(=O)[C@@H](CC(=O)O)NC(=O)[C@@H](C)NC(=O)[C@@H](CCCNC(=N)N)NC(=O)[C@@H](C)NC(=O)[C@@H](CC(=O)O)NC(=O)[C@@H](C)NC(=O)[C@@H](CCCNC(=N)N)NC(=O)[C@@H](C)NC(=O)[C@@H](CC(=O)O)NC(=O)[C@@H](C)NC(=O)[C@@H](CCCNC(=N)N)NC(=O)[C@@H](C)NC(=O)[C@@H](CC(=O)O)NC(=O)[C@@H](C)NC(=O)[C@H](N)CCCNC(=N)N)C(C)C)[C@H](C)CC)C(=O)N[C@H](CCCNC(=N)N)C(=O)O` [DPMD, Ac‐(D‐RADA)4‐CONH2] (H-[dR][dA][dD][dA][dR][dA][dD][dA][dR][dA][dD][dA][dR][dA][dD][dA]G[dS][dV][dL]G[dY][dI][dQ][dI][dR]-OH; N-terminus and C-terminus assumed), the “anisotropy increase with carboxypeptidase A” value in the data set with carboxypeptidase A is “no significant anisotropy increase”. The “anisotropy increase with α-amylase” value in the data set on α-amylase was “no significant anisotropy increase”. Moreover, the “H&E staining of pancreatic tissue” value in data set [1] (Figure S10) is “reduced edema and inflammatory cell infiltration”. The “chymotrypsin leakage by fluorescent dye imaging” value in data set [1] (topical application at incision site, Figure 3B) was “nearly complete suppression of leakage”. Besides, the “serum inflammation markers (TNF-α, IL-6, IL-8, IL-33, sST2, CRP, HMGB1, MPO, PAF, PCT, PGE2, SAA)” value in data set [1] (within 7 days after surgery, Figure 3G) was “decreased”. In data set [2] (1 mL rhodamine-labeled 0.5% (w/v) DPMD intraperitoneally, IVIS, day 6 post-injection, n=3/point), the “fluorescence intensity in organs (liver, kidneys, spleen)” value is on record as “barely detectable”. Besides, the “fluorescence in urine samples” value in data set [2] (labeled DPMD intraperitoneally, Figure S14D) is reported as “fluorescence appeared in urine samples”.
